In PubChem BioAssay (NCI):
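GI50 marks 50% less growth. TGI denotes the concentration required for complete inhibition of growth.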

Legend:
Assay in all cases: NCI-60 cell line screen, 384-well format
[1] = tested on: HCC-2998 colon
[2] = tested on: NCI-H226 lung
[3] = tested on: NCI-H522 lung
[4] = tested on: DU-145 prostate
[5] = tested on: IGROV1 ovarian
[6] = tested on: TK-10 renal
[7] = tested on: A498 renal
[8] = tested on: SNB-75 CNS
[9] = tested on: K-562 leukemia
[10] = tested on: MCF7 breast
[11] = tested on: SNB-19 CNS
[12] = tested on: SN12C renal
[13] = tested on: CCRF-CEM leukemia
[14] = tested on: CAKI-1 renal
[15] = tested on: NCI-H322M lung
[16] = tested on: UO-31 renal
[17] = tested on: HCT-116 colon
[18] = tested on: OVCAR-5 ovarian
[19] = tested on: U251 glioblastoma
[20] = tested on: OVCAR-4 ovarian
[21] = tested on: SR leukemia
[22] = tested on: SK-MEL-2 melanoma
[23] = tested on: OVCAR-3 ovarian
[24] = tested on: ACHN renal
[25] = tested on: 786-0 renal
[26] = tested on: RXF 393 renal
[27] = tested on: UACC-257 melanoma

## COC(=O)N1c2ccc3c(nc(Cc4ccccc4)n3[C@H]3CCC[C@H](C(=O)O)C3)c2CC[C@@H]1C
[1]
  GI50: 2.05 µM
  TGI: 11.8 µM
[2]
  GI50: 2.08 µM
  TGI: 40.2 µM
[3]
  GI50: 1.6 µM
  TGI: 18.7 µM
[4]
  GI50: 26.8 µM
  TGI: > 100 µM
[5]
  GI50: 7.99 µM
  TGI: 77.4 µM
[6]
  GI50: 2.16 µM
  TGI: 37.4 µM
[7]
  GI50: 24.9 µM
  TGI: > 100 µM
[8]
  GI50: > 100 µM
  TGI: > 100 µM
[9]
  GI50: 3.06 µM
  TGI: > 100 µM
[10]
  GI50: 0.692 µM
  TGI: 33.4 µM
[11]
  GI50: 9.78 µM
  TGI: > 100 µM
[12]
  GI50: 11.5 µM
  TGI: > 100 µM
[13]
  GI50: 1.83 µM
  TGI: 19.2 µM
[14]
  GI50: 1.48 µM
  TGI: > 100 µM
[15]
  GI50: 11.1 µM
  TGI: 89.7 µM
[16]
  GI50: 7.99 µM
  TGI: > 100 µM
[17]
  GI50: 13.9 µM
  TGI: > 100 µM
[18]
  GI50: 12.5 µM
  TGI: 84.7 µM
[19]
  GI50: 25 µM
  TGI: > 100 µM
[20]
  GI50: 5.43 µM
  TGI: 31 µM
[21]
  GI50: 1.49 µM
  TGI: 18.3 µM
[22]
  GI50: 14.7 µM
  TGI: > 100 µM
[23]
  GI50: 5.8 µM
  TGI: 75 µM
[24]
  GI50: 14.5 µM
  TGI: > 100 µM
[25]
  GI50: 6.57 µM
  TGI: > 100 µM
[26]
  GI50: 4.47 µM
  TGI: 29.5 µM
[27]
  GI50: 5.22 µM
